Reference: patent publication US10035778B2, “Meta-azacyclic amino benzoic acid derivatives as pan integrin antagonists” (Saint Louis University, priority 2015, dated 2018)

How the values were obtained:
[1] = target: Recombinant human integrin αvβ3 (Homo sapiens (Human), UniProt P05106+P06756); experiment: Solid Phase Receptor Assay (SPRA) for αvβ3 function; format: binding; details: vitronectin-coated plate
Description: 3. Solid Phase Receptor Assay (SPRA) for αvβ3 Function
Recombinant human vitronectin (R& D Systems, 2308-VN) diluted to 1 μg/mL in TBS+ buffer (25 mM Tris pH 7.4, 137 mM NaCl, 2.7 mM KCl, 1 mM CaCl2, 1 mM MgCl2, 1 mM MnCl2) was added to wells (50 μL/well) of a 96-well half-well transparent microtiter plate (Greiner 675061) and incubated overnight at 4° C. Wells were washed 3 times with 150 μL TBS+ and 150 μL of blocking buffer (TBS+ with 1% bovine serum albumin, Sigma A7906) were added. The plate was incubated for 1 hr at 37° C. and then washed 3× with TBS+ buffer. Recombinant human integrin αvβ3 (R&D Systems, 3050-AV) was diluted to 1 μg/mL in TBS+/0.1% bovine serum albumin. Compounds were diluted 1:100 into the integrin solution and then 50 μL added to empty wells of the washed vitronectin-coated plate according to a standard template with each sample repeated in triplicate. After incubation for two hours at room temperature, the plate was washed 3× with 150 μL of TBS+ buffer. To each well, 50 μL of biotinylated anti-αv antibody (R&D Systems, BAF1219) at 0.5 μg/mL in TBS+/0.1% BSA were added and the plate covered and incubated for 1 hr at room temperature. After washing the plate 3× with 150 μL of TBS+ buffer, 50 μL of streptavidin-conjugated horseradish peroxidase (R&D Systems, DY998) diluted in TBS+ blocking buffer were added to the wells and the plate incubated for 20 min at room temperature. The plate was washed 3× with TBS+ buffer followed by 50 μL of TMB substrate (Sigma, T4444) added to each well and the plate was incubated for 20 min at room temperature. Plates were read by colorimetric detection at 650 nm wavelength using a Tecan Safire II plate reader. Concentration-response curves were constructed by non-linear regression (best fit) analysis, and IC50 values were calculated for each compound.

[2] = IV cassette pharmacokinetic study in male Sprague-Dawley rats (Saint Louis University); format: in vivo; details: plasma; male Sprague-Dawley rat, 1 mg/kg IV cassette, sampling to 24 h; read-out: plasma t½ after 1 mg/kg IV bolus dose in rat (converted)
Description: (§1) A minimally sufficient volume of dimethylsulfoxide (DMSO) was added to each test compound to achieve solubilization. For intravenous (IV) delivery, compounds were then formulated as solutions in glycerol formal: saline (either 20:80 or 40:60 v/v) (Sigma Chemicals, St. Louis). For oral (PO) administration, compounds were formulated with 0.5% methylcellulose. Five to six compound solutions were combined into a singled mixed solution for IV and PO cassette administration with final DMSO concentrations <0.6% or <1.2%, for the IV and PO cassettes, respectively. Analytes were detected in test samples using an LC/MS/MS (liquid chromatography/mass spectrometry) system consisting of an LC-20AD pump (Shimadzu, Kyoto, Japan), an HTC PAL autosampler (Leap technologies, Carrboro, N.C.), and a Sciex API-4000 mass spectrometer in ESI mode (AB Sciex, Foster City, Calif.). An Amour C18 reverse phase column (Analytical Sales and Services, Pompton Plains, N.J.) was used for chromatographic separation.
(§2) Pharmacokinetic (PK) studies conducted at Saint Louis University used male Sprague-Dawley rats with an initial body weight of 200 to 220 g. IV PK studies were performed with the following compounds: Examples 1-3 and 5-17 and comparison compounds C12-C18, C29, and C30. Animals were allowed free access to food and water. Rats were individually housed and connected to jugular vein catheters. Each cassette formulation was administered intravenously to two rats (1 mL/kg body weight). Each cassette formulation contained 5-6 compounds at 1 mg/kg in either 20:80 or 40/60 glycerol formal/saline (v/v). Blood was collected manually via the catheter into lithium-heparin tubes at 0.017, 0.083, 0.5, 1, 2, 4, 6 and 24 hours post-dose. Animals were euthanized with CO2 at the end of the experiment.
(§3) Internal standard was added to all samples at 200 ng/mL (final), as well as 150 μL of acetonitrile. Plasma samples (50 μL total volume) were diluted with control nave rat plasma as appropriate to bring the sample measurement into the linear dynamic range of the standard curve. The samples were capped and mixed on a multi-plate vortexer for 5 minutes and centrifuged for 5 minutes at 3200 rmp. The supernant was transferred to 96-well sample plate and capped for LC/MS/MS analysis. Compounds were optimized and monitored for their respective MRM transitions. The mobile phases consisted of 0.1% formic acid (aqueous) and 100% acetonitrile (organic) with an Amour C18 reverse phase column (2.1×30 mm, 5 micron) at a flow rate of 0.35 mL/min. The starting phase was 10% acetonitrile for the 0.9 minutes then increased to 90% acetonitrile over 0.4 minutes, and was maintained for an additional 0.2 minutes before returning to 10% acetonitrile over 0.4 minutes. The 10% acetonitrile was held for an additional 1.6 minutes. Peak areas were integrated using Analyst 1.5.1 (AB Sciex, Foster City, Calif.).

[3] = Oral (PO) cassette pharmacokinetic study in male Sprague-Dawley rats; format: in vivo; details: plasma; male Sprague-Dawley rat, 2 mg/kg oral gavage cassette in 0.5% methylcellulose; read-out: AUC (0-inf) after a 2 mg/kg PO dose in rat
Description: as §1, §2
Oral PK studies were conducted with the following compounds: Examples 1-3 and 5-17 and comparison compounds C12, C14-16 and C29-30. The PO cassette formulations were administered via oral gavage to two rats (10 mL/kg body weight) containing 5-6 compounds per cassette. The oral dose was administered at 2 mg/kg/compound in 0.5% methylcellulose. Blood collection time points were 0.25, 0.5, 1, 2, 4, 6 and 24 hours post-dose into lithium-heparin tubes. Animals were euthanized with CO2 at the end of the experiment.
as §3

Recombinant human integrin αvβ3, sequence (P06756 31-992): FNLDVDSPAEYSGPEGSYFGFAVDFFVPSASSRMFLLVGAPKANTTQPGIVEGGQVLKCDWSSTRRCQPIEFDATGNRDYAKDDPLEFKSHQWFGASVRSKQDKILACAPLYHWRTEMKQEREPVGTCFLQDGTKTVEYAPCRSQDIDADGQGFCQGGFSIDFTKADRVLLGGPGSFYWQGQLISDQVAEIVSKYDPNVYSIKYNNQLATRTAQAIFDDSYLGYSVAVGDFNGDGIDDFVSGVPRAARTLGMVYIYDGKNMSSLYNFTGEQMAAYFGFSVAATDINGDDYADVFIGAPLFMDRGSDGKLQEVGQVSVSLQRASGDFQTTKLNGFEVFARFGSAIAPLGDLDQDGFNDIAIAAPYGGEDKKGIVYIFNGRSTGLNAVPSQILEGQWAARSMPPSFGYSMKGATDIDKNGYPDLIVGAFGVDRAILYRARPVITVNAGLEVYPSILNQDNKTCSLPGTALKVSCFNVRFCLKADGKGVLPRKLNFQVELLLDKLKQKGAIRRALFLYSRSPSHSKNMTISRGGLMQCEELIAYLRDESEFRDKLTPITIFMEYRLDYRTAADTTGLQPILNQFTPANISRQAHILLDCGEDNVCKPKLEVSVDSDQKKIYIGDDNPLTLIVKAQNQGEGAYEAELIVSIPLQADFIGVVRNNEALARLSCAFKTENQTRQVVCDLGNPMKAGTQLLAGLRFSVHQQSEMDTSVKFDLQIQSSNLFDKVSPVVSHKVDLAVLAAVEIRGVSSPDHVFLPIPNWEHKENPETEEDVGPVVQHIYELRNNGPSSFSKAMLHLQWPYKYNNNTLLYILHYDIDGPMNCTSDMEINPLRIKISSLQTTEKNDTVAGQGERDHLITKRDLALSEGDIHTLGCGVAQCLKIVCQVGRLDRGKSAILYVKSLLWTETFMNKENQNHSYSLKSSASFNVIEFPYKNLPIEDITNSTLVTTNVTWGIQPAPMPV
Recombinant human integrin αvβ3, sequence (P05106 27-718): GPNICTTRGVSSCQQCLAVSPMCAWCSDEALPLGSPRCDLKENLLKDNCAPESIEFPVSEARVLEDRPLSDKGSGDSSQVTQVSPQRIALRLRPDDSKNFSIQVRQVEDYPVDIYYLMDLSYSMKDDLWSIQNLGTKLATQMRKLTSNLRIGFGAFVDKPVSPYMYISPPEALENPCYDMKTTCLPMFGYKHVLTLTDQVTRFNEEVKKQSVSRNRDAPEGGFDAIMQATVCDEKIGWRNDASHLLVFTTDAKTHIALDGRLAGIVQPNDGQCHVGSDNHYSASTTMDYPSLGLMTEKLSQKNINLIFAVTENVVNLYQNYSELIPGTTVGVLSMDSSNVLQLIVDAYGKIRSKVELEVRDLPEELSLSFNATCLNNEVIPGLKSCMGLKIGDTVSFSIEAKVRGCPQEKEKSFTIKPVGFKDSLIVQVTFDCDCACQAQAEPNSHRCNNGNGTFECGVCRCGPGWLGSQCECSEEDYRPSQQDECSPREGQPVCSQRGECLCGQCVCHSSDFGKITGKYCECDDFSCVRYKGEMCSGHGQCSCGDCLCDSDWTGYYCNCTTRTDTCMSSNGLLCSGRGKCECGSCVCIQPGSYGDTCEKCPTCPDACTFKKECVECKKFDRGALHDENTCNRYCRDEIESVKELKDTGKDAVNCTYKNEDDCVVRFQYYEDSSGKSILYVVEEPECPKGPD

Row | SMILES | IC50 [1] [nM] | half-life [2] [h] | AUC(0-inf) [3] [ng·h/mL]
1 | O=C(O)C[C@H](NC(=O)CNC(=O)c1cc(O)cc(NC2=NCC(O)CN2)c1)c1cc(Br)cc(Br)c1 (stereo partly drawn) [Example 1, (3S)-3-(3,5-dibromophenyl)-3-(2-(3-hydroxy-5-((5-hydroxy-1,4,5,6-tetrahydropyrimidin-2-yl)amino)benzamido)acetamido)propanoic acid] | 2.3 ± 0.1 | 20.2 | 25000
2 | O=C(O)C[C@H](NC(=O)CNC(=O)c1cc(O)cc(NC2=NCC(O)CN2)c1)c1cc(Br)cc(C(F)(F)F)c1 (stereo partly drawn) [Example 2, (3S)-3-(3-bromo-5-(trifluoromethyl)phenyl)-3-(2-(3-hydroxy-5-((5-hydroxy-1,4,5,6-tetrahydropyrimidin-2-yl)amino)benzamido)acetamido)propanoic acid] | 2.7 ± 0.4 | 9.1 | 19300
3 | O=C(O)C[C@H](NC(=O)CNC(=O)c1cc(O)cc(NC2=NCC(O)CN2)c1)c1cc(Cl)cc(C(F)F)c1 (stereo partly drawn) [Example 3, (3S)-3-[3-chloro-5-(difluoromethyl)phenyl)-3-(2-(3-hydroxy-5-((5-hydroxy-1,4,5,6-tetrahydropyrimidin-2-yl)amino)benzamido)acetamido]propanoic acid] | 1 | 6.1 | 4870
4 | O=C(O)C[C@H](NC(=O)CNC(=O)c1cc(O)cc(NC2=NCC(O)CN2)c1)c1cc(Br)cc(C(F)F)c1 (stereo partly drawn) [Example 4, (3S)-3-[3-bromo-5-(difluoromethyl)phenyl)-3-(2-(3-hydroxy-5-((5-hydroxy-1,4,5,6-tetrahydropyrimidin-2-yl)amino)benzamido)acetamido]propanoic acid] | 3 | – | –
5 | O=C(O)C[C@H](NC(=O)CNC(=O)c1cc(O)cc(NC2=NCC(O)CN2)c1)c1cc(Cl)cc(C(F)(F)F)c1 (stereo partly drawn) [Example 5, (3S)-3-[3-chloro-5-(trifluoromethyl)phenyl)-3-(2-(3-hydroxy-5-((5-hydroxy-1,4,5,6-tetrahydropyrimidin-2-yl)amino)benzamido)acetamido]propanoic acid] | 3 | 6.6 | 11400
6 | O=C(O)C[C@H](NC(=O)CNC(=O)c1cc(O)cc(NC2=NCC(O)CN2)c1)c1cc(Cl)cc(Br)c1 (stereo partly drawn) [Example 6, (3S)-3-[3-bromo-5-chloro-phenyl)-3-(2-(3-hydroxy-5-((5-hydroxy-1,4,5,6-tetrahydropyrimidin-2-yl)amino)benzamido)acetamido]propanoic acid] | 1 | 16.7 | 34400
7 | O=C(O)C[C@H](NC(=O)CNC(=O)c1cncc(NC2=NCC(O)CN2)c1)c1cc(Cl)cc(C(F)(F)F)c1 (stereo partly drawn) [Example 7] | 3 | 4.6 | 3890
8 | O=C(O)C[C@H](NC(=O)CNC(=O)c1cncc(NC2=NCC(O)CN2)c1)c1cc(Cl)cc(Br)c1 (stereo partly drawn) [Example 8, (3S)-3-(3-bromo-5-chloro-phenyl)-3-[[2-[[5-[(5-hydroxy-1,4,5,6-tetrahydropyrimidin-2-yl)amino]pyridine-3-carbonyl]amino]acetyl]amino]propanoic acid] | 4 | 23.9 | 4470
9 | O=C(O)C[C@H](NC(=O)CNC(=O)c1cncc(NC2=NCC(O)CN2)c1)c1cc(Br)cc(C(F)(F)F)c1 (stereo partly drawn) [Example 9, (3S)-3-[3-bromo-5-(trifluoromethyl)phenyl]-3-[[2-[[5-[(5-hydroxy-1,4,5,6-tetrahydropyrimidin-2-yl)amino]pyridine-3-carbonyl]amino]acetyl]amino]propanoic acid] | 3 | 5.6 | 4120
10 | O=C(O)C[C@H](NC(=O)CNC(=O)c1cc(O)cc(NC2=NCC(O)CN2)c1)c1cc(C(F)(F)F)cc(C(F)(F)F)c1 (stereo partly drawn) [Example 10, (3S)-3-[3,5-bis(trifluoromethyl)phenyl)-3-(2-(3-hydroxy-5-((5-hydroxy-1,4,5,6-tetrahydropyrimidin-2-yl)amino)benzamido)acetamido]propanoic acid] | 4 | 3.9 | 13000
11 | Cc1cc(Br)cc([C@H](CC(=O)O)NC(=O)CNC(=O)c2cc(O)cc(NC3=NCC(O)CN3)c2)c1 (stereo partly drawn) [Example 11, (3S)-3-[3-bromo-5-methyl-phenyl)-3-(2-(3-hydroxy-5-((5-hydroxy-1,4,5,6-tetrahydropyrimidin-2-yl)amino)benzamido)acetamido)propanoic acid] | 2 | 24 | 9140
12 | O=C(O)C[C@H](NC(=O)CNC(=O)c1cc(O)cc(NC2=NCC(O)CN2)c1)c1cc(Cl)cc(Br)c1O (stereo partly drawn) [Example C1, reference compound] | 5 ± 2 | – | –
13 | O=C(O)C[C@H](NC(=O)CNC(=O)c1cc(O)cc(NC2=NCC(O)CN2)c1)c1ccccc1 (stereo partly drawn) [Example C2, reference compound] | 3 | – | –
14 | O=C(O)CC(NC(=O)CNC(=O)c1cc(O)cc(NC2=NCC(O)CN2)c1)c1cc(Cl)cc(Cl)c1O (stereo not drawn) [Example C3, reference compound] | 2 | – | –
15 | Cc1cc(C)cc(C(CC(=O)O)NC(=O)CNC(=O)c2cccc(NC(=N)N)c2)c1 (stereo not drawn) [Example C4, reference compound] | 4 | – | –
16 | N=C(N)Nc1cccc(C(=O)NCC(=O)NC(CC(=O)O)c2ccccc2)c1 (stereo not drawn) [Example C5, reference compound] | 4 | – | –
17 | Cc1ccc(O)c(C(CC(=O)O)NC(=O)CNC(=O)c2cc(O)cc(NC3=NCC(O)CN3)c2)c1 (stereo not drawn) [Example C6, reference compound] | 6 | – | –
18 | O=C(O)CC(NC(=O)CNC(=O)c1cc(O)cc(NC2=NCC(O)CN2)c1)c1cc(Br)cc(Br)c1O (stereo not drawn) [Example C7, reference compound] | 11 | – | –
19 | Cc1ccc(O)c(C(CC(=O)O)NC(=O)CNC(=O)c2cccc(NC(=N)N)c2)c1 (stereo not drawn) [Example C8, reference compound] | 5 | – | –
20 | N=C(N)Nc1cccc(C(=O)NCC(=O)NC(CC(=O)O)c2cc(F)cc(C(F)(F)F)c2)c1 (stereo not drawn) [Example C9, reference compound] | 4 ± 1 | – | –
21 | Cc1cc(Cl)cc([C@@H](CC(=O)O)NC(=O)CNC(=O)c2cc(O)cc(NC3=NCC(O)CN3)c2)c1O (stereo partly drawn) [Example C10, reference compound] | 6 | – | –
22 | Cc1cc(Cl)cc([C@@H](CC(=O)O)NC(=O)CNC(=O)c2cccc(NC3=NCCN3)c2)c1O [Example C11, reference compound] | 9 | – | –
